Where two headings read alike, the source gives them in different places.
Legend:
[1] = biological target: T1, hTLR8 (Homo sapiens, UniProt Q9NR97); assay: Agonistic activity on human TLR8 in HEK-Blue hTLR8 cells (QUANTI-Blue); format: cell-based; details: 24 h incubation, OD650, read-out: hTLR 8 EC50
T1 construct: expressed in transfected cells; host or cells: HEK-Blue hTLR8 cells
T1 sequence (Q9NR97 27-1041): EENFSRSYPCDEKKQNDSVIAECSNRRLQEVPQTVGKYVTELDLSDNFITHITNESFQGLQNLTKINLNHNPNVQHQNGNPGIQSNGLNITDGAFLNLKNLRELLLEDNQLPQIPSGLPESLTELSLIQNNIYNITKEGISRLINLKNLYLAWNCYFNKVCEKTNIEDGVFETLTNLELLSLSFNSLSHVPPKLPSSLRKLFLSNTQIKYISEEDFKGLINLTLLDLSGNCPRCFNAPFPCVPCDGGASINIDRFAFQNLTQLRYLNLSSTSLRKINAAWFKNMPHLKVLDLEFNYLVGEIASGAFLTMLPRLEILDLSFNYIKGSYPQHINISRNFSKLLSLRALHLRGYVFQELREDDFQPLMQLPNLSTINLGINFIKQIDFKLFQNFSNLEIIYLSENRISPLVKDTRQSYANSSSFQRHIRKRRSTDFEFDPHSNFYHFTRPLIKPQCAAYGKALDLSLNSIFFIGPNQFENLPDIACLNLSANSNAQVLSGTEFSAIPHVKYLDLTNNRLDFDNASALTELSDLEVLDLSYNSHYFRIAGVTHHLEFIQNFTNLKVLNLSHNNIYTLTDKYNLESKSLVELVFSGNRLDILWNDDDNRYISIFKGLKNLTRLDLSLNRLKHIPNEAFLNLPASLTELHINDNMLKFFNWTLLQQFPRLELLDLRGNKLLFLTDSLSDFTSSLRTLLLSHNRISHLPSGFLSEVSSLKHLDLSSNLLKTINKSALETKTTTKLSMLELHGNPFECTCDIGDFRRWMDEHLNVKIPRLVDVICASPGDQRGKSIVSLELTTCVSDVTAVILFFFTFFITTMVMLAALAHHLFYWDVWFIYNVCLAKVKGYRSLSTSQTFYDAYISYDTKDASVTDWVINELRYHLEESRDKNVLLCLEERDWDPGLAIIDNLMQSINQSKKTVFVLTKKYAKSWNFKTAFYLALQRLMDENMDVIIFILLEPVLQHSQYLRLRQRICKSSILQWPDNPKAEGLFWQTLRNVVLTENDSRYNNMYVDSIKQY

[2] = biological target: T2, hTLR7 (Homo sapiens, UniProt Q9NYK1); assay: Agonistic activity on human TLR7 in HEK-Blue hTLR7 cells (QUANTI-Blue); format: cell-based; details: 24 h incubation, OD650, read-out: hTLR 7 EC50
T2 construct: expressed in transfected cells; host or cells: HEK-Blue hTLR7 cells
T2 sequence (Q9NYK1 27-1049): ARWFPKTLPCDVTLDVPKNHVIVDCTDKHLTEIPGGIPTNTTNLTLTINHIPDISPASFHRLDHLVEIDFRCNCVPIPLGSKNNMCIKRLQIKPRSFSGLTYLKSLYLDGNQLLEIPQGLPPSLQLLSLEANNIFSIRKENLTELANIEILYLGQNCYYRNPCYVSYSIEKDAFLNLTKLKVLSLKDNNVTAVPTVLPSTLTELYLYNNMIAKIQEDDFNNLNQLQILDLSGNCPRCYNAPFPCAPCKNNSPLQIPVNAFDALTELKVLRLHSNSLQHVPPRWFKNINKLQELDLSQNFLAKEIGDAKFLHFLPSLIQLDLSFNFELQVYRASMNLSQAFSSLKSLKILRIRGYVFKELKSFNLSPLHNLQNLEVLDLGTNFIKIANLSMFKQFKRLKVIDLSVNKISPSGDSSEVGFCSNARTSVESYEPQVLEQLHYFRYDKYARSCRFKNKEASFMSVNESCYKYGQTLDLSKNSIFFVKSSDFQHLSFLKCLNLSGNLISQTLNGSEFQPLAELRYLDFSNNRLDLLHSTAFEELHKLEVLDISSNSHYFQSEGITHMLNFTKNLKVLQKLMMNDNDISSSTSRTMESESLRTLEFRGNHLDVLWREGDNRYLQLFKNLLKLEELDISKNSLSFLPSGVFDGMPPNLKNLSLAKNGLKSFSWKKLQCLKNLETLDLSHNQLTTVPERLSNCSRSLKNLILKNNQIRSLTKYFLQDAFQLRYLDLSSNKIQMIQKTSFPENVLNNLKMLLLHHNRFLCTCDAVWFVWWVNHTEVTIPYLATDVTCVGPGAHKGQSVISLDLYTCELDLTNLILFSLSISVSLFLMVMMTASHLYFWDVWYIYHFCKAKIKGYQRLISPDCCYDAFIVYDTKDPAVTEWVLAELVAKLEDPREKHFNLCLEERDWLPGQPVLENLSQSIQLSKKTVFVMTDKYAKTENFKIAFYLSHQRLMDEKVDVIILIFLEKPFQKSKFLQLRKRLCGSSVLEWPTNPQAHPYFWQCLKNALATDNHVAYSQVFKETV
Procedure: (§2) Purpose: HEK-Blue™ hTLR7 and HEK-Blue™ hTLR8 cells were used to detect the agonist and cytotoxic activities of compounds against hTLR7 and hTLR8.
(§3) The experimental steps were as shown below: • 1) Preparation of compound: The compound was prepared into a 20 mM stock solution with DMSO, and then the stock solution was diluted 3-fold in a gradient and added to a 96-well plate, for a total of 10 concentrations, with duplicate wells for each concentration. For negative control wells, 0.5 μL DMSO was added to each well. The final DMSO concentration was 0.5%. • 2) HEK-Blue™ hTLR7 or HEK-Blue™ hTLR8 cells were suspended in culture medium and then seeded into 96-well plates containing compounds at a cell count of 50,000 per well. The compounds and cells were incubated for 24 h at 37° C., 5% Co2. • 3) QUANTI-Blue was used for the detection solution: to a mixture of 1 mL of QB reagent and 1 mL of QB buffer was added 98 mL of sterile water, the mixture was mixed and dissolved, and then placed at room temperature for 10 min. • 4) Activity test of the compound: 20 μL of the culture supernatant in step 2) was added to each well of a 96-well plate containing 180 μL of QUANTI-Blue detection solution. After incubation at 37° C. for 1 h, the absorbance at 650 nm (OD650) was detected using a multifunctional microplate reader Flextation III. • 5) Detection of cell activity: The chemiluminescent signal (RLU) was detected using the multifunctional microplate reader Flextation III according to the instructions of Celltiter-Glo. • 6) Data analysis
Activity of compounds: OD650 values were analyzed using GraphPad Prism software, and the compound dose-effect curves were fitted to calculate the EC50 values of the compounds.

[3] = biological target: T3, CYP1A2 (Homo sapiens, UniProt P05177); assay: Inhibition of human liver microsomal CYP1A2; format: in vitro ADME; details: human liver microsomes, 10 μM test substance; read-out: Relative inhibition rate (%) CYP1A2
T3 construct: from tissue; host or cells: human liver microsomes
T3 sequence (P05177 1-516): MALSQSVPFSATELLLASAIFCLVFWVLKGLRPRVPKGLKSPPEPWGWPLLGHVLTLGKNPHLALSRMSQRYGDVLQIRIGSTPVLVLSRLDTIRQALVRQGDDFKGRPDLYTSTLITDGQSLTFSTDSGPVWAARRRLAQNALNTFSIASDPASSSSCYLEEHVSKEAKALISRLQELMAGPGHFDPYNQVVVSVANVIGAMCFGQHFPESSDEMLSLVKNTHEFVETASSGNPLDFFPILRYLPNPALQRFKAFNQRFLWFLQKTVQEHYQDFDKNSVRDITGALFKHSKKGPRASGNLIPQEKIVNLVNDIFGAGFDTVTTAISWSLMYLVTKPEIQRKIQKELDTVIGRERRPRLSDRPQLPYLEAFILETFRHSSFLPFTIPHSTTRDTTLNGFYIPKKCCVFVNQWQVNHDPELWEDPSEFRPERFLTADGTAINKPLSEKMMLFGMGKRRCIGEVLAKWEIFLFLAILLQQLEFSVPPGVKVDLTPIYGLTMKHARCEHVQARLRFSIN
Procedure: (§1) Experimental purpose: The inhibitory effects of the test compounds on the major metabolizing enzymes CYP1A2, CYP2C19, CYP2D6 and CYP3A4 in microsomes were evaluated using the human liver microsomal system. Experimental method: The test substance was incubated with a suspension of human liver microsomes containing cytochrome P450 enzymes CYP1A2, CYP2C19, CYP2D6 and CYP3A4 at a concentration of 10 μM in the final incubation system. The known substrates were metabolized by the corresponding single enzymes to generate specific metabolites, and the metabolites were determined by UPLC-MS/MS method. The relative inhibition rate (%) was calculated by the percentage reduction of metabolite production by the test compound and solvent DMSO in the same time period. N is the concentration value of the probe substrate metabolite and it is assumed that the […] with or without inhibitor at 0 min is 0. N+inh is the metabolite concentration in the group with inhibitor, and Nveh is the metabolite concentration in the group without inhibitor. The results of the inhibition test of the compounds of the present invention on human liver microsomal CYP enzymes are shown in Table C.

[4] = biological target: T4, CYP2C19 (Homo sapiens, UniProt P33261); assay: Inhibition of human liver microsomal CYP2C19; format: in vitro ADME; details: human liver microsomes, 10 μM test substance; read-out: Relative inhibition rate (%) CYP2C19
T4 construct: from tissue; host or cells: human liver microsomes
T4 sequence (P33261 whole entry): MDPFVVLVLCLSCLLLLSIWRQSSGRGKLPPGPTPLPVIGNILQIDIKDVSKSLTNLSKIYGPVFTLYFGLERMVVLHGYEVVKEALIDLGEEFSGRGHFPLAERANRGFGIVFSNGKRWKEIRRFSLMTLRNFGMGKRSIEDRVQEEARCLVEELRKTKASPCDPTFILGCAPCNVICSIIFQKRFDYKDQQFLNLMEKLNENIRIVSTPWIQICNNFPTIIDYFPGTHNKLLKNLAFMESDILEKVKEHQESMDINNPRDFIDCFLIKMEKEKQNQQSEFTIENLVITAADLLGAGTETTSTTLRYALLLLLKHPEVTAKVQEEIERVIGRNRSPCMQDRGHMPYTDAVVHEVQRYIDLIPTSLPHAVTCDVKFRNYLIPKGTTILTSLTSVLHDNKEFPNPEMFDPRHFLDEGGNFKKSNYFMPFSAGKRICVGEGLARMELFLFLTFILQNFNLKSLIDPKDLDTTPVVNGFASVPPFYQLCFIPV
Procedure: as §1

[5] = biological target: T5, CYP2D6 (Homo sapiens, UniProt P10635); assay: Inhibition of human liver microsomal CYP2D6; format: in vitro ADME; details: human liver microsomes, 10 μM test substance; read-out: Relative inhibition rate (%) CYP2D6
T5 construct: from tissue; host or cells: human liver microsomes
T5 sequence (P10635 whole entry): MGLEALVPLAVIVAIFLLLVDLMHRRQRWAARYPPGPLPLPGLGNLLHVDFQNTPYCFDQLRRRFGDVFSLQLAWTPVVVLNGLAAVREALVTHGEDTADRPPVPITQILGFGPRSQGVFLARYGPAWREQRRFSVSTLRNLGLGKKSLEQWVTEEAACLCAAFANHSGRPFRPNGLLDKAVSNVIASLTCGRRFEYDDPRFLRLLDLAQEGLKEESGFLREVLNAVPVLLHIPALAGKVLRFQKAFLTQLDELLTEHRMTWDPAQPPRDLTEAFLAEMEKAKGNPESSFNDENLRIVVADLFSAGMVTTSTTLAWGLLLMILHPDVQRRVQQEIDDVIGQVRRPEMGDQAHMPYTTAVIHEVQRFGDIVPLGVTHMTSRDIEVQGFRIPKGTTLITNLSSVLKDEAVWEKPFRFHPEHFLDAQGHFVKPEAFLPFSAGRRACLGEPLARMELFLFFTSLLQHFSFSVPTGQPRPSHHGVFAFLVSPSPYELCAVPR
Procedure: as §1

[6] = biological target: T6, CYP3A4 (Homo sapiens, UniProt P08684); assay: Inhibition of human liver microsomal CYP3A4; format: in vitro ADME; details: human liver microsomes, 10 μM test substance
T6 construct: from tissue; host or cells: human liver microsomes
T6 sequence (P08684 whole entry): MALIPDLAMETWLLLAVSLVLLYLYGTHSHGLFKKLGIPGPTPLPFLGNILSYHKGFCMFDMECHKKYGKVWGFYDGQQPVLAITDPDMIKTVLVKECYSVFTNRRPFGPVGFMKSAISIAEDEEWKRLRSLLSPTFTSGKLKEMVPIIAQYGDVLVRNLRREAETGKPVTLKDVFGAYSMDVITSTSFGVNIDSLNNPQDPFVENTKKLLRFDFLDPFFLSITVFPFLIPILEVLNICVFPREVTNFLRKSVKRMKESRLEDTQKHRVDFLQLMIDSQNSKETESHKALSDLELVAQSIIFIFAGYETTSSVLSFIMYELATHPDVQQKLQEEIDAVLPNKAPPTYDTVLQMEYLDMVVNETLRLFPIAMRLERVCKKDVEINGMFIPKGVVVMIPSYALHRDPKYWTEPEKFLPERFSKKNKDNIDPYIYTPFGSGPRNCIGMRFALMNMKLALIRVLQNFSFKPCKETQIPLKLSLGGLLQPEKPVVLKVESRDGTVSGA
Procedure: as §1

[7] = Cell toxicity (Celltiter-Glo) in HEK-Blue hTLR8 cells; details: human
Procedure: as §2, §3
Detection of cell activity: The calculation formula for cell activity % is as follows.
The cell activity % values were analyzed using GraphPad Prism software, and the compound dose-effect curves were fitted to calculate the CC50 values of the compounds.
Cell activity %=RLU compound/RLU DMSO Control*100%

[8] = probe Midazolam, substrate Midazolam, read-out: Relative inhibition rate (%) CYP3A4 (Midazolam)
[9] = probe Testosterone, substrate Testosterone, read-out: Relative inhibition rate (%) CYP3A4 (Testosterone)

Row | Compound | EC50 [1] [µM] | EC50 [2] [µM] | inhibition at 10 µM [3] [%] | inhibition at 10 µM [4] [%] | inhibition at 10 µM [5] [%] | inhibition at 10 µM [6, 8] [%] | inhibition at 10 µM [6, 9] [%] | CC50 at 24 h [7] [µM]
1 | CCCC[C@](C)(CO)Nc1nc(N)nc2cc(-c3cc(=O)[nH]cc3CN(C)CCOC)ccc12 [Example 54, (R)-4-(2-Amino-4-((1-hydroxy-2-methylhexan-2-yl)amino)quinazolin-7-yl)-5-(((2-methoxyethyl)(methyl)amino)methyl)pyridin-2(1H)-one] | 0.106 | > 100 | 7.9 | 0.8 | 12.5 | 22.5 | 8.9 | > 100
2 | CCCC[C@](C)(CO)Nc1nc(N)nc2cc(-c3cc(=O)n(C)cc3CN(C)CCOC)ccc12 [Example 55, (R)-4-(2-Amino-4-((1-hydroxy-2-methylhexan-2-yl)amino)quinazolin-7-yl)-5-(((2-methoxyethyl)(methyl)amino)methyl)-1-methylpyridin-2(1H)-one] | 0.039 | > 100 | 9.1 | 17 | 19.1 | 38.6 | 17.1 | > 100
3 | CCCC[C@](C)(CO)Nc1nc(N)nc2cc(-c3cc(=O)n(C)cc3CN(C)CCO)ccc12 [Example 64, (R)-4-(2-Amino-4-((1-hydroxy-2-methylhexan-2-yl)amino)quinazolin-7-yl)-5-(((2-hydroxyethyl)(methyl)amino)methyl)-1-methylpyridin-2(1H)-one] | 0.077 | > 100 | 8.9 | 2.4 | 13.8 | 17.6 | 8.8 | > 100
4 | CCCCN(C)Cc1c[nH]c(=O)cc1-c1ccc2c(N[C@@](C)(CO)CCCC)nc(N)nc2c1 [Example 36, (R)-4-(2-Amino-4-((1-hydroxy-2-methylhexan-2-yl)amino)quinazolin-7-yl)-5-((butyl(methyl)amino)methyl)pyridin-2(1H)-one] | 0.066 | > 100 | 9 | 7 | 20.1 | 25.9 | 7.5 | > 100

The next compounds have a lower EC50 [1] than those just listed; values first:

Row | EC50 [1] [µM] | EC50 [2] [µM] | inhibition at 10 µM [3] [%] | inhibition at 10 µM [4] [%] | inhibition at 10 µM [5] [%] | inhibition at 10 µM [6, 8] [%] | inhibition at 10 µM [6, 9] [%] | Compound | CC50 at 24 h [7] [µM]
5 | 0.012 | > 100 | 11.1 | 22.1 | 9.6 | 7.4 | 34.1 | CCCC[C@](C)(CO)Nc1nc(N)nc2cc(-c3cc(=O)[nH]cc3COC)cnc12 [Example 51, (R)-4-(2-Amino-4-((1-hydroxy-2-methylhexan-2-yl)amino)pyrido[3,2-d]pyrimidin-7-yl)-5-(methoxymethyl)pyridin-2(1H)-one] | > 100
6 | 0.016 | > 100 | 10.7 | 11.4 | 9.7 | 13.7 | 11.6 | CCCC[C@](C)(CO)Nc1nc(N)nc2cc(-c3cc(=O)[nH]cc3CN(C)C)cnc12 [Example 50, (R)-4-(2-Amino-4-((1-hydroxy-2-methylhexan-2-yl)amino)pyrido[3,2-d]pyrimidin-7-yl)-5-((dimethylamino)methyl)pyridin-2(1H)-one] | > 100
7 | 0.025 | 11.1 | 10.7 | 10.4 | 31.7 | 33.6 | 15.6 | CCCCN(C)Cc1cn(C)c(=O)cc1-c1ccc2c(N[C@@](C)(CO)CCCC)nc(N)nc2c1 [Example 56, (R)-4-(2-Amino-4-((1-hydroxy-2-methylhexan-2-yl)amino)quinazolin-7-yl)-5-((butyl(methyl)amino)methyl)-1-methylpyridin-2(1H)-one] | –

Source: patent publication US20250163051A1, “PYRIMIDO AROMATIC RING COMPOUND AND USE THEREOF IN DRUG” (SUNSHINE LAKE PHARMA CO., LTD., priority 2022, published 2025)
